From ChEMBL document CHEMBL1201862, “PubChem BioAssay data set” (2004)
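Test compounds were applied to cells in 96-well plates for 48 hours at 5 doses. GI50: concentration for 50% inhibition of growth.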 Activity calls are given as the source filed them. Cut-off read from the data, not from the text of the source: active = GI50 up to about 1.1 µM and inactive = higher.

How the values were obtained:
Assay in all cases: growth of human tumour cells (NCI), 48 h
[1] = test system: NCI-H23
[2] = test system: SK-OV-3
[3] = test system: SK-MEL-2
[4] = test system: OVCAR-5
[5] = test system: T47D
[6] = test system: CCRF-CEM
[7] = test system: K562
[8] = test system: SF-268
[9] = test system: SF-539
[10] = test system: HCT-15
[11] = test system: SK-MEL-28
[12] = test system: SW-620
[13] = test system: CAKI-1
[14] = test system: HL-60
[15] = test system: HCT-116
[16] = test system: UACC-257
[17] = test system: LOX IMVI
[18] = test system: BT-549
[19] = test system: HT-29
[20] = test system: MDA-MB-435

| Structure (SMILES) | GI50 [1] | GI50 [2] | GI50 [3] | GI50 [4] | GI50 [5] | GI50 [6] | GI50 [7] | GI50 [8] | GI50 [9] | GI50 [10] [µM] | GI50 [11] | GI50 [12] | GI50 [13] | GI50 [14] | GI50 [15] | GI50 [16] | GI50 [17] | GI50 [18] | GI50 [19] | GI50 [20] |
| --- | --- | --- | --- | --- | --- | --- | --- | --- | --- | --- | --- | --- | --- | --- | --- | --- | --- | --- | --- | --- |
| O=C(O)CCCc1nc2c(n1-c1ccccc1)C(=O)c1ccccc1C2=O | 65.8 µM (inactive) | > 100 µM (inactive) | 97.9 µM (inactive) | > 100 µM (inactive) | > 100 µM (inactive) | 40.7 µM (inactive) | 69.8 µM (inactive) | 38.1 µM (inactive) | 94 µM (inactive) | 74.5 | > 100 µM (inactive) | > 100 µM (inactive) | > 100 µM (inactive) | 37.4 µM (inactive) | 49.1 µM (inactive) | 33.2 µM (inactive) | > 100 µM (inactive) | – | – | – |
| COC(=O)/C=C(\C)CC/C=C(\C)CCC1OC1(C)C (centres undefined) | 13.2 µM (inactive) | 23.7 µM (inactive) | 10.9 µM (inactive) | 13.6 µM (inactive) | – | 4.65 µM (inactive) | 3.11 µM (inactive) | – | 13.5 µM (inactive) | 11.8 | 12.3 µM (inactive) | 13.6 µM (inactive) | 11.7 µM (inactive) | 1.87 µM (inactive) | 12.5 µM (inactive) | 12.5 µM (inactive) | 2.53 µM (inactive) | 11.5 µM (inactive) | 14 µM (inactive) | – |
| C1CN2N3CCCC23C1 (centres undefined) | > 100 µM (inactive) | > 100 µM (inactive) | > 100 µM (inactive) | > 100 µM (inactive) | – | > 100 µM (inactive) | > 100 µM (inactive) | > 100 µM (inactive) | > 100 µM (inactive) | > 100 | > 100 µM (inactive) | > 100 µM (inactive) | > 100 µM (inactive) | > 100 µM (inactive) | > 100 µM (inactive) | > 100 µM (inactive) | > 100 µM (inactive) | – | > 100 µM (inactive) | – |
| CCN(CC)CCOc1ccc(N2C(=O)c3cccc4cc([N+](=O)[O-])cc(c34)C2=O)cc1 | 11.6 µM (inactive) | – | 16.3 µM (inactive) | 2.88 µM (inactive) | 19.7 µM (inactive) | 4.23 µM (inactive) | – | 10.9 µM (inactive) | 9.02 µM (inactive) | 6.64 | 12.5 µM (inactive) | 7.48 µM (inactive) | 11.5 µM (inactive) | 11.8 µM (inactive) | 3.88 µM (inactive) | 13.1 µM (inactive) | 3.88 µM (inactive) | – | 4.91 µM (inactive) | 11.5 µM (inactive) |
| O=C1C=Cc2noc3cccc1c23 | 8.97 µM (inactive) | 18.1 µM (inactive) | 7.4 µM (inactive) | 14.5 µM (inactive) | – | 0.412 µM (active) | 2.5 µM (inactive) | 3.15 µM (inactive) | 16.4 µM (inactive) | 3.08 | 5.47 µM (inactive) | 4.01 µM (inactive) | 12.5 µM (inactive) | 1.05 µM (active) | 2.11 µM (inactive) | 12.6 µM (inactive) | 3.15 µM (inactive) | – | 15.1 µM (inactive) | – |
| Cc1cc(-c2nc3ccccc3s2)ccc1NC(=O)[C@@H](N)CCCCN | 6.7 µM (inactive) | 13.5 µM (inactive) | 13.4 µM (inactive) | 12.5 µM (inactive) | < 0.0247 µM (active) | 6.92 µM (inactive) | 7.01 µM (inactive) | 6.07 µM (inactive) | – | 9.27 | 15.3 µM (inactive) | 12.7 µM (inactive) | 7.5 µM (inactive) | – | 6.22 µM (inactive) | 18.4 µM (inactive) | 2.03 µM (inactive) | 10.1 µM (inactive) | 7.16 µM (inactive) | 5.24 µM (inactive) |
| CCOC(=O)N/N=C(/N)c1cccc(Br)c1 | > 100 µM (inactive) | > 100 µM (inactive) | > 100 µM (inactive) | > 100 µM (inactive) | > 100 µM (inactive) | > 100 µM (inactive) | > 100 µM (inactive) | > 100 µM (inactive) | > 100 µM (inactive) | > 100 | – | – | > 100 µM (inactive) | > 100 µM (inactive) | > 100 µM (inactive) | > 100 µM (inactive) | > 100 µM (inactive) | > 100 µM (inactive) | > 100 µM (inactive) | – |
| O=c1[nH]nc(-c2ccccc2)n1O | > 100 µM (inactive) | > 100 µM (inactive) | > 100 µM (inactive) | > 100 µM (inactive) | > 100 µM (inactive) | > 100 µM (inactive) | > 100 µM (inactive) | 91.4 µM (inactive) | > 100 µM (inactive) | > 100 | > 100 µM (inactive) | > 100 µM (inactive) | > 100 µM (inactive) | > 100 µM (inactive) | > 100 µM (inactive) | > 100 µM (inactive) | > 100 µM (inactive) | – | > 100 µM (inactive) | > 100 µM (inactive) |
